# Test results as given in PubChem BioAssay (NCI).
#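 Following 48 hours of exposure in 96-well plates, responses at five concentrations were used to interpolate endpoints linearly. GI50 is the concentration that inhibits growth by half. The concentration for full growth arrest is given as TGI.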
# How the values were obtained:
# Assay in all cases: growth of human tumour cells (NCI), 48 h
# HOP-62 NSCLC = system: HOP-62 NSCLC
# CAKI-1 renal = system: CAKI-1 renal
# COLO 205 colon = system: COLO 205 colon
# NCI-H23 lung = system: NCI-H23 lung
# HS 578T breast = system: HS 578T breast
# SN12C renal = system: SN12C renal
# SR leukemia = system: SR leukemia
# SK-OV-3 ovarian = system: SK-OV-3 ovarian
# MALME-3M melanoma = system: MALME-3M melanoma
# SF-539 CNS = system: SF-539 CNS
# SF-295 CNS = system: SF-295 CNS
# NCI-H460 lung = system: NCI-H460 lung
# A498 renal = system: A498 renal
# UACC-257 melanoma = system: UACC-257 melanoma
# OVCAR-8 ovarian = system: OVCAR-8 ovarian
# CCRF-CEM leukemia = system: CCRF-CEM leukemia
# RXF 393 renal = system: RXF 393 renal
# NCI-H226 lung = system: NCI-H226 lung
# K-562 leukemia = system: K-562 leukemia
# EKVX NSCLC = system: EKVX NSCLC
# U251 CNS = system: U251 CNS
# HCC-2998 colon = system: HCC-2998 colon
# SK-MEL-2 melanoma = system: SK-MEL-2 melanoma
# A549 NSCLC = system: A549 NSCLC
# PC-3 prostate = system: PC-3 prostate
# HL-60(TB) leukemia = system: HL-60(TB) leukemia
# LOX IMVI melanoma = system: LOX IMVI melanoma
# UACC-62 melanoma = system: UACC-62 melanoma
# HCT-116 colon = system: HCT-116 colon
# HOP-92 NSCLC = system: HOP-92 NSCLC
# NCI-H522 lung = system: NCI-H522 lung
# TK-10 renal = system: TK-10 renal
# BT-549 breast = system: BT-549 breast
# SK-MEL-5 melanoma = system: SK-MEL-5 melanoma
# MCF7 breast = system: MCF7 breast
# MOLT-4 leukemia = system: MOLT-4 leukemia
# OVCAR-3 ovarian = system: OVCAR-3 ovarian
# HT29 colon = system: HT29 colon
# SNB-75 CNS = system: SNB-75 CNS
# SW-620 colon = system: SW-620 colon
# SK-MEL-28 melanoma = system: SK-MEL-28 melanoma
# NCI/ADR-RES ovarian = system: NCI/ADR-RES ovarian
# OVCAR-5 ovarian = system: OVCAR-5 ovarian
# 786-0 renal = system: 786-0 renal
# KM12 colon = system: KM12 colon
# HCT-15 colon = system: HCT-15 colon
# UO-31 renal = system: UO-31 renal
# M14 melanoma = system: M14 melanoma
# MDA-MB-468 breast = system: MDA-MB-468 breast
# SNB-19 CNS = system: SNB-19 CNS
# MDA-MB-435 = system: MDA-MB-435
# ACHN renal = system: ACHN renal
# T-47D breast = system: T-47D breast
# RPMI-8226 leukemia = system: RPMI-8226 leukemia
# IGROV1 ovarian = system: IGROV1 ovarian
# DU-145 prostate = system: DU-145 prostate
# OVCAR-4 ovarian = system: OVCAR-4 ovarian
# SF-268 CNS = system: SF-268 CNS
# MDA-MB-231 breast = system: MDA-MB-231 breast
structure (smiles),measurement,setting,value
COc1ccc2[nH]c(O)c(N=NC(=O)COc3ccc(NC(=O)Nc4ccccc4)cc3)c2c1,GI50,HOP-62 NSCLC,18.5 µM
same,TGI,HOP-62 NSCLC,34.6 µM
same,GI50,CAKI-1 renal,24.3 µM
same,TGI,CAKI-1 renal,70.1 µM
same,GI50,COLO 205 colon,16.5 µM
same,TGI,COLO 205 colon,33.5 µM
same,GI50,NCI-H23 lung,15.8 µM
same,TGI,NCI-H23 lung,32.7 µM
same,GI50,HS 578T breast,17.3 µM
same,TGI,HS 578T breast,75.6 µM
same,GI50,SN12C renal,16.4 µM
same,TGI,SN12C renal,31.7 µM
same,GI50,SR leukemia,22.9 µM
same,TGI,SR leukemia,> 100 µM
same,GI50,SK-OV-3 ovarian,19.6 µM
same,TGI,SK-OV-3 ovarian,44 µM
same,GI50,MALME-3M melanoma,14.4 µM
same,TGI,MALME-3M melanoma,28.4 µM
same,GI50,SF-539 CNS,14.7 µM
same,TGI,SF-539 CNS,28.2 µM
same,GI50,SF-295 CNS,18.1 µM
same,TGI,SF-295 CNS,39.8 µM
same,GI50,NCI-H460 lung,15.7 µM
same,TGI,NCI-H460 lung,41.2 µM
same,GI50,A498 renal,18.3 µM
same,TGI,A498 renal,38.4 µM
same,GI50,UACC-257 melanoma,19.5 µM
same,TGI,UACC-257 melanoma,41.5 µM
same,GI50,OVCAR-8 ovarian,9.79 µM
same,TGI,OVCAR-8 ovarian,27.5 µM
same,GI50,CCRF-CEM leukemia,33.1 µM
same,TGI,CCRF-CEM leukemia,> 100 µM
same,GI50,RXF 393 renal,13.6 µM
same,TGI,RXF 393 renal,32.5 µM
same,GI50,NCI-H226 lung,15 µM
same,TGI,NCI-H226 lung,34.7 µM
same,GI50,K-562 leukemia,26.7 µM
same,TGI,K-562 leukemia,> 100 µM
same,GI50,EKVX NSCLC,35.3 µM
same,TGI,EKVX NSCLC,> 100 µM
same,GI50,U251 CNS,15.7 µM
same,TGI,U251 CNS,37.6 µM
same,GI50,HCC-2998 colon,17.5 µM
same,TGI,HCC-2998 colon,42.8 µM
same,GI50,SK-MEL-2 melanoma,16.4 µM
same,TGI,SK-MEL-2 melanoma,33.4 µM
same,GI50,A549 NSCLC,21.9 µM
same,TGI,A549 NSCLC,58.4 µM
same,GI50,PC-3 prostate,14.5 µM
same,TGI,PC-3 prostate,36.3 µM
same,GI50,HL-60(TB) leukemia,29.6 µM
same,TGI,HL-60(TB) leukemia,> 100 µM
same,GI50,LOX IMVI melanoma,17 µM
same,TGI,LOX IMVI melanoma,36.8 µM
same,GI50,UACC-62 melanoma,16.3 µM
same,TGI,UACC-62 melanoma,30.8 µM
same,GI50,HCT-116 colon,2.91 µM
same,TGI,HCT-116 colon,27.5 µM
same,GI50,HOP-92 NSCLC,7.82 µM
same,TGI,HOP-92 NSCLC,25.4 µM
same,GI50,NCI-H522 lung,15.3 µM
same,TGI,NCI-H522 lung,38.5 µM
same,GI50,TK-10 renal,46.2 µM
same,TGI,TK-10 renal,> 100 µM
same,TGI,BT-549 breast,20.2 µM
same,GI50,SK-MEL-5 melanoma,16.9 µM
same,TGI,SK-MEL-5 melanoma,36.5 µM
same,GI50,MCF7 breast,17.4 µM
same,TGI,MCF7 breast,40.2 µM
same,GI50,MOLT-4 leukemia,23.7 µM
same,TGI,MOLT-4 leukemia,> 100 µM
same,GI50,OVCAR-3 ovarian,17.4 µM
same,TGI,OVCAR-3 ovarian,35.5 µM
same,GI50,HT29 colon,26 µM
same,TGI,HT29 colon,> 100 µM
same,GI50,SNB-75 CNS,10.7 µM
same,TGI,SNB-75 CNS,27.3 µM
same,GI50,SW-620 colon,15.2 µM
same,TGI,SW-620 colon,43.3 µM
same,GI50,SK-MEL-28 melanoma,16.6 µM
same,TGI,SK-MEL-28 melanoma,30.7 µM
same,GI50,NCI/ADR-RES ovarian,> 100 µM
same,TGI,NCI/ADR-RES ovarian,> 100 µM
same,GI50,OVCAR-5 ovarian,18.3 µM
same,TGI,OVCAR-5 ovarian,45.4 µM
same,GI50,786-0 renal,13.6 µM
same,TGI,786-0 renal,30.6 µM
same,GI50,KM12 colon,0.684 µM
same,TGI,KM12 colon,21 µM
same,GI50,HCT-15 colon,> 100 µM
same,TGI,HCT-15 colon,> 100 µM
same,GI50,UO-31 renal,> 100 µM
same,TGI,UO-31 renal,> 100 µM
same,GI50,M14 melanoma,2.9 µM
same,TGI,M14 melanoma,21.1 µM
same,GI50,MDA-MB-468 breast,11.1 µM
same,TGI,MDA-MB-468 breast,26.2 µM
same,GI50,SNB-19 CNS,16.6 µM
same,TGI,SNB-19 CNS,35.4 µM
same,GI50,MDA-MB-435,16.3 µM
same,TGI,MDA-MB-435,35.4 µM
same,GI50,ACHN renal,39.5 µM
same,TGI,ACHN renal,> 100 µM
same,GI50,T-47D breast,15.4 µM
same,TGI,T-47D breast,31.2 µM
same,GI50,RPMI-8226 leukemia,58 µM
same,TGI,RPMI-8226 leukemia,> 100 µM
same,GI50,IGROV1 ovarian,22.5 µM
same,TGI,IGROV1 ovarian,59.2 µM
same,GI50,DU-145 prostate,30.9 µM
same,TGI,DU-145 prostate,> 100 µM
same,GI50,OVCAR-4 ovarian,11.1 µM
same,TGI,OVCAR-4 ovarian,33 µM
same,GI50,SF-268 CNS,14.3 µM
same,TGI,SF-268 CNS,34.3 µM
same,GI50,MDA-MB-231 breast,14.3 µM
same,TGI,MDA-MB-231 breast,28.6 µM
